Results: patent US12187728B2 (Raze Therapeutics, Inc., priority 2015, dated 2025)

Target: T1, Human MTHFD2 (Homo sapiens, UniProt P13995)
T1 construct: residues 36-350 in Uniport ID P13995; His6 (N); made in house; host or cells: E. coli
T1 sequence (P13995 36-350): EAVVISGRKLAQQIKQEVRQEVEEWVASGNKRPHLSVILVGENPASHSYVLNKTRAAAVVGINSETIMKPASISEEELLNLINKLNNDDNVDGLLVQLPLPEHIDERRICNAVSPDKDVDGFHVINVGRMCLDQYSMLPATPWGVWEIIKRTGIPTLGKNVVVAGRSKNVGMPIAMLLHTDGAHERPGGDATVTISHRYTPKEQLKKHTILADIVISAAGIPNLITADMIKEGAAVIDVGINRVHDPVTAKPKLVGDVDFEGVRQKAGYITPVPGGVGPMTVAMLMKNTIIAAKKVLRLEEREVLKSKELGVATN
Experiment: MTHFD2 Activity Assay (dehydrogenase activity, diaphorase/resazurin coupled fluorescence)
Format: biochemical
Settings: inhibitory activity (IC50 and/or binding constant); 0.2 nM MTHFD2, 11 concentrations
Procedure, shortened: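 His6-tagged MTHFD2 (res. 36-350), E. coli-expressed, at 0.2 nM preincubated with compound 15 min in Hepes pH 8.0/MgCl2/KH2PO4 buffer; 70 μM CH2-THF, 1 mM NAD+ added with resazurin/diaphorase, 30 min, EDTA stop. Resorufin fluorescence (ex 525/em 598); IC50 from 11-point 4-parameter fit.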

Row | IC50 [nM] | Compound
1 | 10 to 1000 | Cn1c(Nc2ccccn2)nc2c1c(=O)n(Cc1cc3c(Cl)cccc3[nH]1)c(=O)n2C [Example 302, 1-((4-chloro-1H-indol-2-yl)methyl)-3,7-dimethyl-8-(pyridin-2-ylamino)-1H-purine-2,6(3H, 7H)-dione]
2 | 10 to 1000 | Cn1c(Nc2ccc(CO)nc2)nc2c1c(=O)n(Cc1cc3c(Cl)cccc3[nH]1)c(=O)n2C [Example 407, 1-((4-chloro-1H-indol-2-yl)methyl)-8-(6-(hydroxymethyl)pyridin-3-ylamino)-3,7-dimethyl-1H-purine-2,6(3H,7H)-dione]
3 | 1000 to 5000 | Cn1c(N[C@@H]2CCNC2)nc2c1c(=O)n(Cc1ccc(Cl)c(Cl)c1)c(=O)n2C [Example 60, 1-[(3,4-dichlorophenyl)methyl]-3,7-dimethyl-8-{[(3R)-pyrrolidin-3-yl]amino}-2,3,6,7-tetrahydro-1H-purine-2,6-dione]
4 | 10 to 1000 | CC(O)C1CCC(Nc2nc3c(c(=O)n(Cc4ccc(Cl)c(Cl)c4)c(=O)n3C)n2C)C1 (stereo not shown) [Example 265, 1-(3,4-dichlorobenzyl)-8-(3-(1-hydroxyethyl)cyclopentylamino)-3,7-dimethyl-1H-purine-2,6(3H,7H)-dione]
5 | 10 to 1000 | Cn1c(Nc2cccc([C@@H]3C[C@H]3C(N)=O)n2)nc2c1c(=O)n(Cc1cc3c(Cl)cccc3[nH]1)c(=O)n2C (racemic) [Example 364, (±)-trans-2-(6-((1-((4-chloro-1H-indol-2-yl)methyl)-3,7-dimethyl-2,6-dioxo-2,3,6,7-tetrahydro-1H-purin-8-yl)amino)pyridin-2-yl)cyclopropanecarboxamide]
6 | 10 to 1000 | Cn1c(N[C@H]2CC[C@@H](O)C2)nc2c1c(=O)n(Cc1cc3ccccc3[nH]1)c(=O)n2C (racemic) [Example 155, (±)-1-((1H-indol-2-yl)methyl)-8-((cis)-3-hydroxycyclopentylamino)-3,7-dimethyl-1H-purine-2,6(3H,7H)-dione]
7 | 1000 to 5000 | COc1cc(Cn2c(=O)c3c(nc(N[C@@H]4CCC[C@H]4O)n3C)n(C)c2=O)ccc1Cl [Example 103, 1-[(4-chloro-3-methoxyphenyl)methyl]-8-{[(1R,2R)-2-hydroxycyclopentyl]amino}-3,7-dimethyl-2,3,6,7-tetrahydro-1H-purine-2,6-dione]
8 | 10 to 1000 | Cn1c(Nc2ccncc2)nc2c1c(=O)n(Cc1ccc(Cl)c(Cl)c1)c(=O)n2C [Example 125, 1-(3,4-dichlorobenzyl)-3,7-dimethyl-8-(pyridin-4-ylamino)-1H-purine-2,6(3H,7H)-dione]
9 | 1000 to 5000 | Cc1ccc2[nH]c(Cn3c(=O)c4c(ncn4C)n(C)c3=O)cc2c1 [Example 236, 3,7-dimethyl-1-((5-methyl-1H-indol-2-yl)methyl)-1H-purine-2,6(3H,7H)-dione]
10 | 10 to 1000 | Cn1c(N[C@H]2C[C@H](C(=O)O)C2)nc2c1c(=O)n(Cc1cc3ccccc3[nH]1)c(=O)n2C [Example 289, (1R,3R)-3-(1-((1H-indol-2-yl)methyl)-3,7-dimethyl-2,6-dioxo-2,3,6,7-tetrahydro-1H-purin-8-ylamino)cyclobutanecarboxylic acid]
11 | 10 to 1000 | Cc1cccc2[nH]c(Cn3c(=O)c4c(nc(Nc5ccncc5)n4C)n(C)c3=O)cc12 [Example 328, 1-((4-methyl-1H-indol-2-yl)methyl)-3,7-dimethyl-8-(pyridin-4-ylamino)-1H-purine-2,6(3H,7H)-dione]
12 | 10 to 1000 | Cn1c(Nc2ccnc([C@H]3C[C@@H]3C(=O)O)c2)nc2c1c(=O)n(Cc1ccc(Cl)c(Cl)c1)c(=O)n2C (racemic) [Example 279, (±)-trans-2-(4-((1-(3,4-dichlorobenzyl)-3,7-dimethyl-2,6-dioxo-2,3,6,7-tetrahydro-1H-purin-8-yl)amino)pyridin-2-yl)cyclopropanecarboxylic acid]
13 | 10 to 1000 | Cn1c(Nc2cccnn2)nc2c1c(=O)n(Cc1ccc(Cl)c(Cl)c1)c(=O)n2C [Example 122, 1-(3,4-dichlorobenzyl)-3,7-dimethyl-8-(pyridazin-3-ylamino)-1H-purine-2,6(3H,7H)-dione]
14 | 10 to 1000 | Cc1cccc2cc(Cn3c(=O)c4c(nc(C(C)N)n4C)n(C)c3=O)ccc12 (stereo not shown) [Example 448, 8-(1-aminoethyl)-3,7-dimethyl-1-((5-methylnaphthalen-2-yl)methyl)-1H-purine-2,6(3H,7H)-dione]
15 | 10 to 1000 | Cn1c(N[C@@H]2CCCOC2)nc2c1c(=O)n(Cc1ccc(Cl)c(Cl)c1)c(=O)n2C [Example 47, 1-[(3,4-dichlorophenyl)methyl]-3,7-dimethyl-8-{[(3R)-oxan-3-yl]amino}-2,3,6,7-tetrahydro-1H-purine-2,6-dione]
16 | 1000 to 5000 | C[C@@H](Nc1nc2c(c(=O)n(Cc3ccc(Cl)c(Cl)c3)c(=O)n2C)n1C)C(=O)O [Example 129, (R)-2-(1-(3,4-dichlorobenzyl)-3,7-dimethyl-2,6-dioxo-2,3,6,7-tetrahydro-1H-purin-8-ylamino)propanoic acid]

Row | IC50 [nM] | Compound
17 | 10 to 1000 | Cn1c(NC2CCCC(C(=O)O)C2)nc2c1c(=O)n(Cc1ccc(Cl)c(Cl)c1)c(=O)n2C (racemic) [Example 114, (±)-3-(1-(3,4-dichlorobenzyl)-3,7-dimethyl-2,6-dioxo-2,3,6,7-tetrahydro-1H-purin-8-ylamino)cyclohexanecarboxylic acid]
18 | 1000 to 5000 | Cn1c(CO)nc2c1c(=O)n(Cc1ccc(Cl)c(Cl)c1)c(=O)n2C [Example 100, 1-(3,4-dichlorobenzyl)-8-(hydroxymethyl)-3,7-dimethyl-1H-purine-2,6(3H,7H)-dione]
19 | 10 to 1000 | CC(N)c1nc2c(c(=O)n(Cc3[nH]c4cccc(Cl)c4c3Cl)c(=O)n2C)n1C (stereo not shown) [Example 456, 8-(1-aminoethyl)-1-[(3,4-dichloro-1H-indol-2-yl)methyl]-3,7-dimethyl-purine-2,6-dione]
20 | 10 to 1000 | Cn1c(CCO)nc2c1c(=O)n(Cc1ccc(Cl)c(Cl)c1)c(=O)n2C [Example 158, 1-(3,4-dichlorobenzyl)-8-(2-hydroxyethyl)-3,7-dimethyl-1H-purine-2,6(3H,7H)-dione]
21 | 10 to 1000 | Cn1c(Nc2ccncc2)nc2c1c(=O)n(Cc1cc3c(F)cccc3[nH]1)c(=O)n2C [Example 310, 1-((4-fluoro-1H-indol-2-yl)methyl)-3,7-dimethyl-8-(pyridin-4-ylamino)-1H-purine-2,6(3H,7H)-dione]
22 | 10 to 1000 | CC(=O)NS(=O)(=O)c1ccc(Nc2nc3c(c(=O)n(Cc4cc5c(Cl)cccc5[nH]4)c(=O)n3C)n2C)cc1 [Example 390, N-((4-((1-((4-chloro-1H-indol-2-yl)methyl)-3,7-dimethyl-2,6-dioxo-2,3,6,7-tetrahydro-1H-purin-8-yl)amino)phenyl)sulfonyl)acetamide]
23 | 10 to 1000 | Cn1c(Nc2ccncc2)nc2c1c(=O)n(Cc1cc3ccccc3[nH]1)c(=O)n2C [Example 174, 1-((1H-indol-2-yl)methyl)-3,7-dimethyl-8-(pyridin-4-ylamino)-1H-purine-2,6(3H,7H)-dione]
24 | > 10000 | CC(c1ccc(Cl)c(Cl)c1)n1c(=O)c2c(nc(NCCCO)n2C)n(C)c1=O (stereo not shown) [Example 72, 1-[1-(3,4-dichlorophenyl)ethyl]-8-[(3-hydroxypropyl)amino]-3,7-dimethyl-2,3,6,7-tetrahydro-1H-purine-2,6-dione]
25 | 10 to 1000 | C[C@H](N)c1nc2c(c(=O)n(Cc3cc4c(Cl)cccc4[nH]3)c(=O)n2C)n1C (single isomer, unassigned) [Example 435, (S)-8-(1-aminoethyl)-1-((4-chloro-1H-indol-2-yl)methyl)-3,7-dimethyl-1H-purine-2,6(3H,7H)-dione or (R)-8-(1-aminoethyl)-1-((4-chloro-1H-indol-2-yl)methyl)-3,7-dimethyl-1H-purine-2,6(3H,7H)-dione]
26 | 1000 to 5000 | Cn1cnc2c1c(=O)n(Cc1ccc(Cl)c(Cl)c1)c(=O)n2C [Example 152, 1-(3,4-dichlorobenzyl)-3,7-dimethyl-1H-purine-2,6(3H,7H)-dione]
27 | 1000 to 5000 | Cn1c(N2CC(O)C2)nc2c1c(=O)n(Cc1cc3cc(Cl)ccc3[nH]1)c(=O)n2C [Example 199, 1-((5-chloro-1H-indol-2-yl)methyl)-8-(3-hydroxyazetidin-1-yl)-3,7-dimethyl-1H-purine-2,6(3H,7H)-dione]
28 | 1000 to 5000 | CN(C)CCc1nc2c(c(=O)n(Cc3ccc(Cl)c(Cl)c3)c(=O)n2C)n1C [Example 157, 1-(3,4-dichlorobenzyl)-8-(2-(dimethylamino)ethyl)-3,7-dimethyl-1H-purine-2,6(3H,7H)-dione]
29 | 10 to 1000 | Cc1ccc2[nH]c(Cn3c(=O)c4c(nc(N5CCC(O)CC5)n4C)n(C)c3=O)cc2c1 [Example 193, 8-(4-hydroxypiperidin-1-yl)-3,7-dimethyl-1-((5-methyl-1H-indol-2-yl)methyl)-1H-purine-2,6(3H,7H)-dione]
30 | 10 to 1000 | Cn1c(N[C@H]2CCC[C@@H](O)C2)nc2c1c(=O)n(Cc1ccc(Cl)c(Cl)c1)c(=O)n2C (racemic) [Example 173, (±)-1-(3,4-dichlorobenzyl)-8-((cis)-3-hydroxycyclohexylamino)-3,7-dimethyl-1H-purine-2,6(3H,7H)-dione]
31 | 10 to 1000 | Cn1c(NC2CNC(=O)C2)nc2c1c(=O)n(Cc1cc3ccccc3[nH]1)c(=O)n2C (racemic) [Example 214, (±)-1-((1H-indol-2-yl)methyl)-3,7-dimethyl-8-(5-oxopyrrolidin-3-ylamino)-1H-purine-2,6(3H,7H)-dione]
